Source: publication PMC7562955 (Nature Communications, 2020)
Values joined by “and” are separate entries in the source; they are usually repeats but may differ in a detail not shown here. Equal entries are not always repeated. Where two headings read alike, the source gives them in different places.

Tests used:
[1] = test system: lupus-prone NZB/W F1 mice; experiment: Efficacy study in lupus-prone NZB/W F1 mice (proteinuria, survival, kidney histopathology); type: in vivo; conditions: for proteinuria (urinary albumin/creatinine ratio), mean / Histological score (glomerular lesion), Mean: n = 6; for Histological score (glomerular lesion), individual mouse: 0–4 scale
Method: At the initiation of treatment, mice were randomly divided according to bodyweight and proteinuria level (urinary albumin/creatinine ratio over 300 mg g^−1) and were orally once or twice daily. […] During the treatment, nearly dead individuals were euthanized, then sera and kidneys were collected. In this case, the last known values for urinary protein was carried forward.
Urine protein was quantified by automatic analyzer (BioMajesty ZERO(JCA-ZS050), JEOL Ltd, Japan) with Mouse Urinary Albumin Assay Kit (S-type) (AKRAL-021S, Shibayagi Co.,Ltd., Japan). Urine creatinine levels were measured in the same samples. The urine albumin excretion rate is expressed as the ratio of albumin to creatinine. Time course of proteinuria were analyzed by Dunnett’s multiple-range test.
The both kidneys were fixed in 10% neutral-buffered formalin, embedded in paraffin, sectioned, stained with hematoxylin and eosin (HE) and periodic acid-Schiff (PAS), and examined by light microscopy. Glomerulonephritis was scored on a 0–4 scale, based on the intensity and extent of histopathological changes. A grade of 0 was given to kidney without glomerular lesions; a grade of 1 was given when there was minimal thickening of the mesangium; a grade of 2 was given when there was a noticeable increase in both mesangial and glomerular capillary cellularity; a grade of 3 was given when the preceding conditions were observed, along with superimposed inflammatory exudates and capsular adhesions; and a grade of 4 was given when the obliteration of the glomerular architecture included 70% of glomeruli. These classifications were used to grade 20 glomeruli within one area, and the mean glomerular histopathological score was calculated for each mouse. Data were analyzed by Tukey’s test.

[2] = Pharmacokinetic profiling after oral dose in NZB/W F1 mice; type: in vivo, mouse; conditions: for plasma Concentration, individual mouse / concentration at 3 h / concentration at 6 h / concentration at 24 h: 100 mg/kg po; for concentration at 3 h / concentration at 6 h / concentration at 24 h: female, NZB/W F1, mouse, plasma, oral, 100 mg/kg
Method: Cpd-7 was orally administered to 35-week-old female NZB/W F1 mice at 100 mg kg^−1 dissolved in 0.5 w/v% Methyl Cellulose 400 Solution (WAKO, Japan). Blood was collected over 24 h from the isoflurane-anesthetized mice via the jugular vein. The plasma samples were separated by centrifugation. Cpd-7 was extracted from the plasma samples by protein precipitation with methanol and measured using LC/MS/MS (HPLC: SHIMADZU CORPORATION, Japan; MS: AB Sciex Pte. Ltd., Japan). The lower limit of quantification was set at 5 ng/mL.

[3] = 100 mg kg−1 po once or twice daily, four weeks

## CCOc1nc(C)c2nc(-c3cncc(F)c3)n(Cc3ccc(CN4C[C@@H]5C[C@H]4CN5C)cc3)c2n1 [Cpd-7]
[1]; 100 mg kg-1 po B.I.D, 0 wk
  proteinuria (urinary albumin/creatinine ratio), mean: 1719.9
[1]; 100 mg kg-1 po B.I.D, 1 wk
  proteinuria (urinary albumin/creatinine ratio), mean: 7204.5
[1]; 100 mg kg-1 po B.I.D, 2 wk
  proteinuria (urinary albumin/creatinine ratio), mean: 747.0
[1]; 100 mg kg-1 po B.I.D, 3 wk
  proteinuria (urinary albumin/creatinine ratio), mean: 150.9
[1]; 100 mg kg-1 po B.I.D, 4 wk
  proteinuria (urinary albumin/creatinine ratio), mean: 121.0
[1]; 100 mg kg-1 po Q.D., 0 wk
  proteinuria (urinary albumin/creatinine ratio), mean: 1780.7
[1]; 100 mg kg-1 po Q.D., 1 wk
  proteinuria (urinary albumin/creatinine ratio), mean: 10042.5
[1]; 100 mg kg-1 po Q.D., 2 wk
  proteinuria (urinary albumin/creatinine ratio), mean: 9132.2
[1]; 100 mg kg-1 po Q.D., 3 wk
  proteinuria (urinary albumin/creatinine ratio), mean: 6691.2
[1]; 100 mg kg-1 po Q.D., 4 wk
  proteinuria (urinary albumin/creatinine ratio), mean: 3804.5
[1]; 100 mg kg−1 once or twice daily
  glomerular lesion scores vs vehicle: significantly reduced
[1]; [3]
  death/survival: prevented death in all mice
  proteinuria vs vehicle: significant decrease in proteinuria
[1]; B.I.D. 100 mg kg-1
  Histological score (glomerular lesion), individual mouse: 0 and 1
  Histological score (glomerular lesion), Mean: 0.3333
[1]; B.I.D. 100 mg kg-1, day 0
  Survival rate: 100%
[1]; B.I.D. 100 mg kg-1, day 1
  Survival rate: 100%
[1]; B.I.D. 100 mg kg-1, day 2
  Survival rate: 100%
[1]; B.I.D. 100 mg kg-1, day 3
  Survival rate: 100%
[1]; B.I.D. 100 mg kg-1, day 4
  Survival rate: 100%
[1]; B.I.D. 100 mg kg-1, day 5
  Survival rate: 100%
[1]; B.I.D. 100 mg kg-1, day 6
  Survival rate: 100%
[1]; B.I.D. 100 mg kg-1, day 7
  Survival rate: 100%
[1]; B.I.D. 100 mg kg-1, day 8
  Survival rate: 100%
[1]; B.I.D. 100 mg kg-1, day 9
  Survival rate: 100%
[1]; B.I.D. 100 mg kg-1, day 10
  Survival rate: 100%
[1]; B.I.D. 100 mg kg-1, day 11
  Survival rate: 100%
[1]; B.I.D. 100 mg kg-1, day 12
  Survival rate: 100%
[1]; B.I.D. 100 mg kg-1, day 13
  Survival rate: 100%
[1]; B.I.D. 100 mg kg-1, day 14
  Survival rate: 100%
[1]; B.I.D. 100 mg kg-1, day 15
  Survival rate: 100%
[1]; B.I.D. 100 mg kg-1, day 16
  Survival rate: 100%
[1]; B.I.D. 100 mg kg-1, day 17
  Survival rate: 100%
[1]; B.I.D. 100 mg kg-1, day 18
  Survival rate: 100%
[1]; B.I.D. 100 mg kg-1, day 19
  Survival rate: 100%
[1]; B.I.D. 100 mg kg-1, day 20
  Survival rate: 100%
[1]; B.I.D. 100 mg kg-1, day 21
  Survival rate: 100%
[1]; B.I.D. 100 mg kg-1, day 22
  Survival rate: 100%
[1]; B.I.D. 100 mg kg-1, day 23
  Survival rate: 100%
[1]; B.I.D. 100 mg kg-1, day 24
  Survival rate: 100%
[1]; B.I.D. 100 mg kg-1, day 25
  Survival rate: 100%
[1]; B.I.D. 100 mg kg-1, day 26
  Survival rate: 100%
[1]; B.I.D. 100 mg kg-1, day 27
  Survival rate: 100%
[1]; B.I.D. 100 mg kg-1, day 28
  Survival rate: 100%
[1]; Q.D. 100 mg kg-1
  Histological score (glomerular lesion), individual mouse: 0 and 2 and 1 and 3
  Histological score (glomerular lesion), Mean: 1
[1]; Q.D. 100 mg kg-1, day 0
  Survival rate: 100%
[1]; Q.D. 100 mg kg-1, day 1
  Survival rate: 100%
[1]; Q.D. 100 mg kg-1, day 2
  Survival rate: 100%
[1]; Q.D. 100 mg kg-1, day 3
  Survival rate: 100%
[1]; Q.D. 100 mg kg-1, day 4
  Survival rate: 100%
[1]; Q.D. 100 mg kg-1, day 5
  Survival rate: 100%
[1]; Q.D. 100 mg kg-1, day 6
  Survival rate: 100%
[1]; Q.D. 100 mg kg-1, day 7
  Survival rate: 100%
[1]; Q.D. 100 mg kg-1, day 8
  Survival rate: 100%
[1]; Q.D. 100 mg kg-1, day 9
  Survival rate: 100%
[1]; Q.D. 100 mg kg-1, day 10
  Survival rate: 100%
[1]; Q.D. 100 mg kg-1, day 11
  Survival rate: 100%
[1]; Q.D. 100 mg kg-1, day 12
  Survival rate: 100%
[1]; Q.D. 100 mg kg-1, day 13
  Survival rate: 100%
[1]; Q.D. 100 mg kg-1, day 14
  Survival rate: 100%
[1]; Q.D. 100 mg kg-1, day 15
  Survival rate: 100%
[1]; Q.D. 100 mg kg-1, day 16
  Survival rate: 100%
[1]; Q.D. 100 mg kg-1, day 17
  Survival rate: 100%
[1]; Q.D. 100 mg kg-1, day 18
  Survival rate: 100%
[1]; Q.D. 100 mg kg-1, day 19
  Survival rate: 100%
[1]; Q.D. 100 mg kg-1, day 20
  Survival rate: 100%
[1]; Q.D. 100 mg kg-1, day 21
  Survival rate: 100%
[1]; Q.D. 100 mg kg-1, day 22
  Survival rate: 100%
[1]; Q.D. 100 mg kg-1, day 23
  Survival rate: 100%
[1]; Q.D. 100 mg kg-1, day 24
  Survival rate: 100%
[1]; Q.D. 100 mg kg-1, day 25
  Survival rate: 100%
[1]; Q.D. 100 mg kg-1, day 26
  Survival rate: 100%
[1]; Q.D. 100 mg kg-1, day 27
  Survival rate: 100%
[1]; Q.D. 100 mg kg-1, day 28
  Survival rate: 100%
[1]; both treatment groups
  toxic signs in body weights or clinical signs: no clear toxic signs
[2]; 3 h
  plasma Concentration, individual mouse: 3.24 µg/mL and 2.77 µg/mL
[2]; 6 h
  plasma Concentration, individual mouse: 0.948 µg/mL and 0.525 µg/mL
[2]; 24 h
  plasma Concentration, individual mouse: 0.01 µg/mL and 0.00755 µg/mL
[2]; 3 h, n = 3, read-out: plasma Concentration, Mean
  concentration at 3 h: 2.89 µg/mL
[2]; 3 h, read-out: plasma Concentration, individual mouse
  concentration at 3 h: 2.65 µg/mL
[2]; 6 h, n = 3, read-out: plasma Concentration, Mean
  concentration at 6 h: 0.71 µg/mL
[2]; 6 h, read-out: plasma Concentration, individual mouse
  concentration at 6 h: 0.658 µg/mL
[2]; 24 h, n = 3, read-out: plasma Concentration, Mean
  concentration at 24 h: 0.00863 µg/mL
[2]; 24 h, read-out: plasma Concentration, individual mouse
  concentration at 24 h: 0.00833 µg/mL
[2]; single 100 mg kg−1 po
  oral availability: orally available
